Data as given in patent US6620828B2, “Thiazole compounds and pharmaceutical compositions for inhibiting protein kinases and methods for their use” (Agouron Pharmaceuticals, Inc., priority 1999, dated 2003).

What was measured:
Assay type in all cases: biochemical
[1] = biological target: T1, phosphorylated VEGF-R2Δ50 (FLVK-P) (Homo sapiens, UniProt P35968, DEL940-989/E990V); assay: VEGF-R2 coupled spectrophotometric (FLVK-P) assay; conditions: read-out: VEGF % inhibition at 20 μM, 20 μM; combinatorial library compounds
T1 construct: VEGF-R2Δ50 contains residues 806-939 and 990-1171; made in house; host or cells: baculovirus/insect cells
Procedure, shortened: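 Baculovirus-expressed human VEGF-R2Δ50 (residues 806-939/990-1171, E990V) was autophosphorylated with 3 mM ATP, 40 mM MgCl2 for 2 h at 4° C. ADP formation was coupled via PK/LDH to NADH oxidation, read at 340 nm, with 5.1 mM poly(E4Y1), 1 mM ATP, 25 mM MgCl2, Hepes pH 7.5. Ki came from activity across compound concentrations.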

FL-CHK1 = biological target: T2, FL-CHK1 (Homo sapiens, UniProt O14757); assay: CHK1 assay; conditions: 20 μM; combinatorial library compounds
T2 construct: C-terminally His-tagged full-length human CHK1 (FL-CHK1); 6xHis (C); made in house; host or cells: baculovirus/insect cells
T2 sequence (O14757 1-476): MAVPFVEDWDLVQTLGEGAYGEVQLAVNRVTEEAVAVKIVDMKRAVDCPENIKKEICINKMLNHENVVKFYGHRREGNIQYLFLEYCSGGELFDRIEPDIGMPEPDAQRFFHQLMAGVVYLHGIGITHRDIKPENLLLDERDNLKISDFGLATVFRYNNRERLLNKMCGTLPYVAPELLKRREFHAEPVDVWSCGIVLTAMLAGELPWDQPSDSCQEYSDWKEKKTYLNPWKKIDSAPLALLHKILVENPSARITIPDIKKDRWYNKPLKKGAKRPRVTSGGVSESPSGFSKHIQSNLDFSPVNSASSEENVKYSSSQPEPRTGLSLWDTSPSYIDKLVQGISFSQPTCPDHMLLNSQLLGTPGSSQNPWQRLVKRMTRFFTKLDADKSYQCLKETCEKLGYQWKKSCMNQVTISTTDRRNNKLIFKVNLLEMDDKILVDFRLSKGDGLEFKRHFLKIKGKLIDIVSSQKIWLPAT
Procedure, shortened: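 Full-length human CHK1 with C-terminal 6×His tag, made in baculovirus/insect cells, 10 nM, phosphorylating 0.125 mM Syntide-2 with 0.15 mM ATP in 50 mM Tris pH 7.5, 25 mM MgCl2, 400 mM NaCl. PK/LDH-coupled NADH oxidation read at 340 nm. Ki from initial rates over varied compound concentrations.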

CDK2/Cyclin A complex = CDK2/Cyclin A complex (Homo sapiens, UniProt P24941); assay: CDK2/Cyclin A assay; conditions: 1.0 μM; combinatorial library compounds
Procedure, shortened: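 Radiometric assay: 150 nM CDK2/cyclin A (insect-cell CDK2, truncated cyclin A) phosphorylates His-tagged Rb fragment (residues 386-928) with 25 μM ATP plus [32P]ATP, pH 7.4 HEPES, 2% DMSO, 30 °C for 20 min. Filter-captured product counted by phosphorimager; apparent Ki from competitive or tight-binding inhibition fits.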

CDK4/Cyclin D3 complex = biological target: T3, CDK4/Cyclin D3 complex (Homo sapiens, UniProt P11802); assay: CDK4/Cyclin D assay; conditions: 1.0 μM; combinatorial library compounds
T3 construct: made in house; host or cells: insect cells co-infected with baculovirus vectors
Method: CDK4/Cyclin D Construct for Assay: A complex of human CDK4 and cyclin D3, or a complex of cyclin DI and a fusion protein of human CDK4 and glutathione-S-transferase (GST-CDK4), was purified using traditional biochemical chromatographic techniques from insect cells that had been co-infected with the corresponding baculovirus expression vectors.
CDK2/Cyclin A and CDK4/Cyclin D Assays
Cyclin-dependent kinase activity was measured by quantifying the enzyme-catalyzed, time-dependent incorporation of radioactive phosphate from [^32P]ATP into a recombinant fragment of the retinoblastoma protein. Unless noted otherwise, assays were performed in 96-well plates in a total volume of 50 μL, in the presence of 10 mM HEPES (N-[2-hydroxyethyl]piperazine-N′-[2-ethanesulfonic acid]) (pH 7.4), 10 mM MgCl2, 25 μM adenosine triphosphate (ATP), 1 mg/mL ovalbumin, 5 μg/mL leupeptin, 1 mM dithiothreitol, 10 mM β-glycerophosphate, 0.1 mM sodium vanadate, 1 mM sodium fluoride, 2.5 mM ethylene glycol-bis(β-aminoethyl ether)-N,N,N′N′-tetraacetic acid (EGTA), 2% (v/v) dimethylsulfoxide, and 0.03-0.2 μCi [^32P]ATP. The substrate (0.3-0.5 μg) was purified recombinant retinoblastoma protein fragment (Rb) (residues 386-928 of the native retinoblastoma protein; 62.3 kDa, containing the majority of the phosphorylation sites found in the native 106-kDa protein, as well as a tag of six histidine residues for ease of purification). Reactions were initiated with CDK2 (150 nM CDK2/Cyclin A complex) or CDK4 (50 nM CDK4/Cyclin D3 complex), incubated at 30° C., and terminated after 20 minutes by the addition of ethylenediaminetetraacetic acid EDTA) to 250 mM. The phosphorylated substrate was then captured on a nitrocellulose membrane using a 96-well filtration manifold, and unincorporated radioactivity was removed by repeated washing with 0.85% phosphoric acid. Radioactivity was quantified by exposing the dried nitrocellulose membranes to a phosphorimager. Apparent Ki values were measured by assaying enzyme activity in the presence of different compound concentrations and subtracting the background radioactivity measured in the absence of enzyme. The kinetic parameters (kcat, Km for ATP) were measured for each enzyme under the usual assay conditions by determining the dependence of initial rates on ATP concentration. The data were fit to an equation for competitive inhibition using Kaleidagraph (Synergy Software), or were fit to an equation for competitive tight-binding inhibition using the software KineTic (BioKin, Ltd.). Measured Ki values for known inhibitors against CDK4 and CDK2 agreed with published IC50 values. The specific activity of CDK4 was the same whether complexed to full-length cyclin D3 or the truncated Cyclin D3 construct; both complexes also yielded very similar Ki values for selected inhibitors.

T1 sequence (P35968 with tags, fused parts or gaps DEL940-989/E990V limits assumed): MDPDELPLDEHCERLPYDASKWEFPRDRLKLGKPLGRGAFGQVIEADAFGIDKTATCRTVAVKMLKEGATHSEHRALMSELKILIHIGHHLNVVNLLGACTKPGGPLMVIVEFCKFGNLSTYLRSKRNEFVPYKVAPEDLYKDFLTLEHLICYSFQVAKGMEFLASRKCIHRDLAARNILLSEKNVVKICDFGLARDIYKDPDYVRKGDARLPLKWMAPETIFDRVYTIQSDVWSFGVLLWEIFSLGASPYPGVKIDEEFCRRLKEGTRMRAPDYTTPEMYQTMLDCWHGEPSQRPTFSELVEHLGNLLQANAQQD
T3 sequence (P11802 whole entry): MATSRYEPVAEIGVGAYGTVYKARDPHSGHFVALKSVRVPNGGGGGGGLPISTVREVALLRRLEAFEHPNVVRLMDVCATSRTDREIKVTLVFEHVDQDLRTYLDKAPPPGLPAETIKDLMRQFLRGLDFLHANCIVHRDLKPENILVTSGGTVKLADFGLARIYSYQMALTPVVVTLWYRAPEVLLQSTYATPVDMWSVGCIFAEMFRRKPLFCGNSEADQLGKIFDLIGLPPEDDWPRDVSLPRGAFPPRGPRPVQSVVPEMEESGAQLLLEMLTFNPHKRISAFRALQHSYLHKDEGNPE
T3 sequence (P30281 whole entry partner): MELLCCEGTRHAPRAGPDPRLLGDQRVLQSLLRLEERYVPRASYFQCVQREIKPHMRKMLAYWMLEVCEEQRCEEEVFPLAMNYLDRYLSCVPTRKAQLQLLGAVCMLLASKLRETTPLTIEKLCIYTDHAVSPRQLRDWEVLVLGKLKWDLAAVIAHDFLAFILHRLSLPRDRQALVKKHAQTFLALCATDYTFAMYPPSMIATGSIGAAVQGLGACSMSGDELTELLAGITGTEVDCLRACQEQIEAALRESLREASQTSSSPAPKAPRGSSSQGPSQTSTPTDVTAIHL

| inhibition at 20 µM [1] [%] | inhibition at 20 µM (FL-CHK1) [%] | inhibition at 1 µM (CDK2/Cyclin A complex) [%] | inhibition at 1 µM (CDK4/Cyclin D3 complex) [%] | CDK4 % Inhibition at 1.0 μM (CDK4/Cyclin D3 complex) [%] | Structure (SMILES) |
| --- | --- | --- | --- | --- | --- |
| 18 | 22.8 | 28.2 | 88.6 |  | Cc1c(F)cc(-c2csc(-c3sc(Nc4ccc(C(C)C)cc4)nc3N)n2)cc1Cl |
| -2 | -0.2 | 10.8 | 53.1 |  | CC(C)c1ccc(Nc2nc(N)c(-c3nc(-c4ccc(Cl)cc4)cs3)s2)cc1 |
| 23 | 9.8 | 27.1 | 48.5 |  | CN(C)c1ccc(Nc2nc(N)c(-c3nc(-c4ccccc4OC(=O)c4ccccc4)cs3)s2)cc1 |
| 9 | 21.7 | 53.9 | 58 |  | Nc1nc(Nc2ccc(S(N)(=O)=O)cc2)sc1-c1nc(-c2c(Cl)cc(C(F)(F)F)cc2Cl)cs1 |
| 13 | 13.6 | 14.6 | 39.7 |  | Nc1nc(Nc2ccc(S(N)(=O)=O)cc2)sc1-c1nc(-c2ccc[nH]2)cs1 |
| 3 | 1.1 | 29.8 | -13 |  | CCOC(=O)c1cc(-c2csc(-c3sc(Nc4ccc(S(N)(=O)=O)cc4)nc3N)n2)on1 |
| 17 | 13.1 | 17.2 |  | −48.3 | CN(C)c1ccc(Nc2nc(N)c(-c3nc(-c4ccccc4)cs3)s2)cc1 [drawing 547] |
| 33 | 37 | 33.9 | 62.7 |  | Cc1c(C)c(C)c(-c2csc(-c3sc(Nc4ccc(N(C)C)cc4)nc3N)n2)c(C)c1C |
| 40 | 21.6 | 74.1 | 58.2 |  | Nc1nc(Nc2ccc(S(N)(=O)=O)cc2)sc1-c1nc(-c2ccc(F)cc2F)cs1 [drawing 445] |
| 10 | 2.5 | 11.2 | 36.5 |  | CN(C)c1ccc(Nc2nc(N)c(-c3nc(-c4ccc(Cl)cc4)cs3)s2)cc1 |
| 35 | 41.4 | 33.3 | 64.4 |  | CN(C)c1ccc(Nc2nc(N)c(-c3nc(-c4c(Cl)c(Cl)nc(Cl)c4Cl)cs3)s2)cc1 |
| 8 | -2.3 | 28.4 | 41.2 |  | COc1ccc(OC)c(-c2csc(-c3sc(Nc4ccc(S(N)(=O)=O)cc4)nc3N)n2)c1 |
| 33 | -7.3 | 25.4 | -4.8 |  | CC(=O)Oc1ccccc1-c1csc(-c2sc(Nc3ccc(S(N)(=O)=O)cc3)nc2N)n1 |
| 1 | 3.1 | 6.7 | 35.4 |  | COc1ccc(-c2csc(-c3sc(Nc4ccc(N(C)C)cc4)nc3N)n2)c(OC)c1 |
| -13 | 15.6 | 6.3 | 53.3 |  | COc1ccccc1-c1csc(-c2sc(Nc3ccc(C(C)C)cc3)nc2N)n1 |
| 20 | 32.7 | -2.5 | 43.7 |  | CN(C)c1ccc(Nc2nc(N)c(-c3nc(-c4ccc5c(c4)CCC(=O)N5)cs3)s2)cc1 |
| 3 | 9.7 | 61.4 | 53.4 |  | COc1ccc2nc(-c3ccccc3)c(-c3csc(-c4sc(Nc5ccc(S(N)(=O)=O)cc5)nc4N)n3)cc2c1 |
| 22 | 17.6 | 19 | 53.3 |  | CC(C)c1ccc(Nc2nc(N)c(-c3nc(-c4ccc[nH]4)cs3)s2)cc1 |
| 33 | -2.1 | 20.5 | -9.6 |  | Cc1ccc(-c2csc(-c3sc(Nc4ccc(S(N)(=O)=O)cc4)nc3N)n2)cc1 [drawing 395] |
| -2 | 2.9 | -4.5 | -3.9 |  | Cc1onc(-c2ccccc2)c1-c1csc(-c2sc(Nc3ccc(S(N)(=O)=O)cc3)nc2N)n1 |
| 24 | 27.2 | 29.8 | 52.4 |  | Cc1cc(-c2csc(-c3sc(Nc4ccc(N(C)C)cc4)nc3N)n2)cc(C)c1O |
| -4 | 3.7 | 8.7 | 48.3 |  | CC(C)c1ccc(Nc2nc(N)c(-c3nc(-c4ccc(C(F)(F)F)cc4)cs3)s2)cc1 |
| 25 | 13.4 | 40.7 | 46 |  | Cc1cc(-c2csc(-c3sc(Nc4ccc(S(N)(=O)=O)cc4)nc3N)n2)cc(C)c1O |
| -2 | 16 | 4.1 | 59.8 |  | CN(C)c1ccc(Nc2nc(N)c(-c3nc(-c4ccc(Cl)c([N+](=O)[O-])c4)cs3)s2)cc1 |
| 43 | 33.7 | 74.7 | 61.2 |  | Nc1nc(Nc2ccc(S(N)(=O)=O)cc2)sc1-c1nc(-c2ccc(F)cc2)cs1 [drawing 409] |
| 11 | 11.3 | 51.6 | 65 |  | Nc1nc(Nc2ccc(S(N)(=O)=O)cc2)sc1-c1nc(-c2ccc(CC(=O)O)s2)cs1 |
| 14 | -2.5 | 23.3 | 50 |  | Cc1ccc(-c2csc(-c3sc(Nc4ccc(C(C)C)cc4)nc3N)n2)c(C)c1 |
| 31 | 14.8 | 26 | 86.2 |  | CC(C)c1ccc(Nc2nc(N)c(-c3nc(-c4c(Cl)cc(C(F)(F)F)cc4Cl)cs3)s2)cc1 |
| 23 | 15.2 | 5.9 | -4.2 |  | COc1cccc(-c2csc(-c3sc(Nc4ccc(S(N)(=O)=O)cc4)nc3N)n2)c1 |
